According to PubChem BioAssay AID1963448 (Molecular Pharmacology Branch, DTP, NCI, 2024):
Several values for one entry are separate records, joined by “and”; a condition that tells them apart may be missing. Identical values can stand only once.

Tested on: 616215-338-R-J1-PDC complex spheroid growth, % test/control
Assay: Anticancer human tumor 616215-338-R-J1-PDC patient-derived colon adenocarcinoma cell line growth inhibition [Asc]
Conditions: for viability, T/C: stronger effect = lower value
How it was run: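 Tumor cells were grown as multicellular spheroids with stromal HUVEC and mesenchymal stem cells and treated singly or in combination. Concentrations fell in half-log steps from the clinical Cmax, or from 10 microM where none was known.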

[1] = curve of first compound, second compound 0.03 µM
[2] = curve of first compound, second compound 0.0949 µM
[3] = curve of first compound, second compound 0.3 µM
[4] = curve of first compound, second compound 0.949 µM
[5] = curve of first compound, second compound 3 µM
[6] = second compound 0.03 µM, first compound 0.0316 µM
[7] = second compound 0.03 µM, first compound 0.1 µM
[8] = second compound 0.03 µM, first compound 0.316 µM
[9] = second compound 0.03 µM, first compound 1 µM
[10] = second compound 0.03 µM, first compound 3.16 µM
[11] = second compound 0.03 µM, first compound 10 µM
[12] = second compound 0.0949 µM, first compound 0.0316 µM
[13] = second compound 0.0949 µM, first compound 0.1 µM
[14] = second compound 0.0949 µM, first compound 0.316 µM
[15] = second compound 0.0949 µM, first compound 1 µM
[16] = second compound 0.0949 µM, first compound 3.16 µM
[17] = second compound 0.0949 µM, first compound 10 µM
[18] = second compound 0.3 µM, first compound 0.0316 µM
[19] = second compound 0.3 µM, first compound 0.1 µM
[20] = second compound 0.3 µM, first compound 0.316 µM
[21] = second compound 0.3 µM, first compound 1 µM
[22] = second compound 0.3 µM, first compound 3.16 µM
[23] = second compound 0.3 µM, first compound 10 µM
[24] = second compound 0.949 µM, first compound 0.0316 µM
[25] = second compound 0.949 µM, first compound 0.1 µM
[26] = second compound 0.949 µM, first compound 0.316 µM
[27] = second compound 0.949 µM, first compound 1 µM
[28] = second compound 0.949 µM, first compound 3.16 µM
[29] = second compound 0.949 µM, first compound 10 µM
[30] = second compound 3 µM, first compound 0.0316 µM
[31] = second compound 3 µM, first compound 0.1 µM
[32] = second compound 3 µM, first compound 0.316 µM
[33] = second compound 3 µM, first compound 1 µM
[34] = second compound 3 µM, first compound 3.16 µM
[35] = second compound 3 µM, first compound 10 µM
[36] = second compound 0.03 µM, first compound 0.00316 µM
[37] = second compound 0.03 µM, first compound 0.01 µM
[38] = second compound 0.0949 µM, first compound 0.00316 µM
[39] = second compound 0.0949 µM, first compound 0.01 µM
[40] = second compound 0.3 µM, first compound 0.00316 µM
[41] = second compound 0.3 µM, first compound 0.01 µM
[42] = second compound 0.949 µM, first compound 0.00316 µM
[43] = second compound 0.949 µM, first compound 0.01 µM
[44] = second compound 3 µM, first compound 0.00316 µM
[45] = second compound 3 µM, first compound 0.01 µM
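Note: spheroids exposed to agents for seven days before readout.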
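Throughout, for viability, T/C: 100% = DMSO vehicle control viability.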

SMILES	IC50 [1] [nM]	IC50 [2] [nM]	IC50 [3] [nM]	IC50 [4] [nM]	IC50 [5] [nM]	viability, T/C [6] [%]	viability, T/C [7] [%]	viability, T/C [8] [%]	viability, T/C [9] [%]	viability, T/C [12] [%]	viability, T/C [13] [%]	viability, T/C [14] [%]	viability, T/C [15] [%]	viability, T/C [18] [%]	viability, T/C [19] [%]	viability, T/C [20] [%]	viability, T/C [21] [%]	viability, T/C [24] [%]	viability, T/C [25] [%]	viability, T/C [26] [%]	also measured
O=C(c1cc(Cc2n[nH]c(=O)c3ccccc23)ccc1F)N1CCN(C(=O)C2CC2)CC1 + CCN1C(C(=O)NC23CCC(C(=O)O)(CC2)CC3)C(c2cccc(Cl)c2F)C2(C(=O)Nc3cc(Cl)ccc32)C12CCCCC2	> 10000	> 10000	> 10000	> 10000	> 10000	101	99.1	99.4	99.8	99	100	97.8	92.2	73.3	72.6	78	71.8	74.7	80.8	72.4	viability, T/C [10]: 94.1%; viability, T/C [11]: 77.6%; viability, T/C [16]: 81.2%; viability, T/C [17]: 67.5%; viability, T/C [22]: 61.4%; viability, T/C [23]: 65.2%; viability, T/C [27]: 68.5%; viability, T/C [28]: 67%; viability, T/C [29]: 55.7%; viability, T/C [30]: 61.4%; viability, T/C [31]: 62.5%; viability, T/C [32]: 60.5%; viability, T/C [33]: 60.1%; viability, T/C [34]: 51.8%; viability, T/C [35]: 48.8%
O=C(c1ccc(F)c(F)c1Nc1ccc(I)cc1F)N1CC(O)([C@@H]2CCCCN2)C1	–	–	–	–	–	–	–	–	–	–	–	–	–	–	–	–	–	–	–	–	viability, T/C (compound 0.00316 µM): 89.5% and 99.8% and 108%; viability, T/C (compound 0.01 µM): 84.3% and 101% and 100%; viability, T/C (compound 0.0316 µM): 74.5% and 93.8% and 67.1%; viability, T/C (compound 0.1 µM): 54.4% and 51.2% and 15.8%; viability, T/C (compound 0.316 µM): 22.1% and 19.3% and 4.03%; viability, T/C (compound 1 µM): 1.33% and 0.76% and 3.69%; IC50 (curve of compound): 113 nM and 114 nM and 46.2 nM
C=C(F)C(=O)N1CCN(c2nc(OCC3CCCN3C)nc3c2CCN(c2cccc4cccc(Cl)c24)C3)CC1CC#N (centres undefined) + CCN1C(C(=O)NC23CCC(C(=O)O)(CC2)CC3)C(c2cccc(Cl)c2F)C2(C(=O)Nc3cc(Cl)ccc32)C12CCCCC2	5680	4920	3720	3830	< 31.6	106	103	109	106	106	96.7	99.3	93.4	69.9	67.9	66	65.7	62.2	65.5	67.6	viability, T/C [10]: 101%; viability, T/C [11]: 0.87%; viability, T/C [16]: 82%; viability, T/C [17]: 0.4%; viability, T/C [22]: 58.2%; viability, T/C [23]: 0.52%; viability, T/C [27]: 63.8%; viability, T/C [28]: 59.9%; viability, T/C [29]: 0.26%; viability, T/C [30]: 48.9%; viability, T/C [31]: 48.8%; viability, T/C [32]: 46.2%; viability, T/C [33]: 45.6%; viability, T/C [34]: 46.2%; viability, T/C [35]: 0.36%
CCN1CCN(Cc2ccc(Nc3ncc(F)c(-c4cc(F)c5nc(C)n(C(C)C)c5c4)n3)nc2)CC1 + CCN1C(C(=O)NC23CCC(C(=O)O)(CC2)CC3)C(c2cccc(Cl)c2F)C2(C(=O)Nc3cc(Cl)ccc32)C12CCCCC2	> 1000	> 1000	> 1000	> 1000	150	104	108	108	116	97.2	80.5	88.2	75.2	63.3	58.3	69.5	59.9	72.1	68.9	83.6	viability, T/C [36]: 102%; viability, T/C [37]: 99.2%; viability, T/C [38]: 93.6%; viability, T/C [39]: 96%; viability, T/C [40]: 66.2%; viability, T/C [41]: 67%; viability, T/C [42]: 60.5%; viability, T/C [43]: 66.6%; viability, T/C [27]: 52%; viability, T/C [44]: 48.2%; viability, T/C [45]: 52.4%; viability, T/C [30]: 48.3%; viability, T/C [31]: 56.4%; viability, T/C [32]: 54.7%; viability, T/C [33]: 42.2%
COc1c(OCCCN2CCOCC2)ccc2c3n(c(=NC(=O)c4cnc(N)nc4)nc12)CCN3 + CCN1C(C(=O)NC23CCC(C(=O)O)(CC2)CC3)C(c2cccc(Cl)c2F)C2(C(=O)Nc3cc(Cl)ccc32)C12CCCCC2	153	73.4	21.9	9.45	< 3.16	99.7	63.6	26	13.1	74.2	41	15.2	6.02	46	23.4	9.03	3.12	38.4	14	5.66	viability, T/C [36]: 95.7%; viability, T/C [37]: 99.4%; viability, T/C [38]: 89.3%; viability, T/C [39]: 81.2%; viability, T/C [40]: 59.7%; viability, T/C [41]: 59.2%; viability, T/C [42]: 55.1%; viability, T/C [43]: 47%; viability, T/C [27]: 1.65%; viability, T/C [44]: 45.7%; viability, T/C [45]: 40.4%; viability, T/C [30]: 27.4%; viability, T/C [31]: 7.37%; viability, T/C [32]: 3.24%; viability, T/C [33]: 0.71%
Cn1ncnc1[C@H]1c2n[nH]c(=O)c3cc(F)cc(c23)N[C@@H]1c1ccc(F)cc1	–	–	–	–	–	–	–	–	–	–	–	–	–	–	–	–	–	–	–	–	viability, T/C (compound 0.000316 µM): 93.4% and 104% and 99.2%; viability, T/C (compound 0.001 µM): 96.2% and 100% and 92.5%; viability, T/C (compound 0.00316 µM): 97.1% and 98.9% and 93.8%; viability, T/C (compound 0.01 µM): 99% and 106% and 100%; viability, T/C (compound 0.0316 µM): 95.7% and 100% and 102%; viability, T/C (compound 0.1 µM): 108% (2×) and 100%; IC50 (curve of compound): > 100 nM
